Measured values as given in patent publication US20160194358A1, “LINEAR PEPTIDE ANTIBIOTCS” (priority 2013, published 2016).
In brackets after ≈: the same amount, converted by molar mass. Where two headings read alike, the source gives them in different places. Where a SMILES comes first, the peptide text is derived from it. [ ]: non-standard residue; d: D form. The star is where a group is joined. boroAla((+)-pinanediol) = C[C@H](N*)B1O[C@@H]2C[C@@H]3C[C@@H](C3(C)C)[C@]2(C)O1; Benzenesulfonyl(4-Ph) = O=S(=O)(c1ccc(-c2ccccc2)cc1)*; Benzoyl(4-(4-Cl-Ph)) = O=C(c1ccc(-c2ccc(Cl)cc2)cc1)*; Propanoyl(3-decylamino) = CCCCCCCCCCNCCC(=O)*; X18 = CCCCc1ccc(-c2ccc(S(=O)(=O)*)cn2)cc1; X21 = O=S(=O)(c1ccc(-c2ccc(Cl)cc2)nc1)*; AlaCOCOOMe = COC(=O)C(=O)[C@H](C)N*; X31 = O=S(=O)(c1ccc(-c2ccccc2)cn1)*; NDecylGly = CCCCCCCCCCNCC(=O)O; X20 = CC(N*)C(=O)C(F)(F)C(=O)O; X37 = C[C@H](N*)B1OCCNCCO1; X17 = CCCCCCCCCNCCCC(=O)*; X7 = C[C@H](N*)C(=O)C1CO1; boroAla = C[C@H](N*)B(O)O; Dab = NCC[C@H](N)C(=O)O; X24 = CCCCCCCCNCCC(=O)*; Dap = NC[C@H](N)C(=O)O

Experiments:
[1] = tested on: methicillin resistant Staphylococcus aureus (MRSA) strain USA300 (NRS384)
Procedure: (§1) In vitro antimicrobial activity of each compound was determined by measuring minimal inhibitor concentrations (MICs) using the broth micro-dilution technique as approved by the Clinical and Laboratory Standards Institute (CLSI). Antibacterial activity was measure against two strains of bacteria: 1) methicillin resistant Staphylococcus aureus (MRSA) strain USA300 (NRS384) and 2) Escherichia coli strain MC4100 IMP-4213, which harbors an LptD mutation. Bacterial inocula were prepared by scraping cells into 1 mL of testing media (cation adjusted Mueller Hinton Broth supplemented with 0.002% v/v Tween-80) and diluting to a final OD600nm of 0.01.
(§2) Test compounds were prepared in DMSO at a concentration of 10 mg/ml. These compound stocks were diluted into testing media at a concentration of 64 μg/ml and 9 serial 1:2 dilutions were made in the same media, in 96-well U bottom microtiter dishes. Bacterial inocula were added to the two fold serial dilutions of test compounds to a final density of OD OD600nm of 0.0005 and incubated stationarily at 35° C. for 22 hours, after which the plates were examined visually.

[2] = tested on: Escherichia coli strain MC4100 IMP-4213, which harbors an LptD mutation; conditions: E. coli MC4100 IMP-4213; 35° C., 22 hours
Procedure: as §1, §2

[3] = MRSA USA300 (NRS384), 35° C., 22 hours

Compound | MIC (μg/mL) S. aureus ([1]; USA300, 22 h) [µg/mL] | MIC (μg/mL) E. coli [2] [µg/mL] | MIC (μg/mL) S. aureus [1, 3] [µg/mL]
C[C@H](NC(=O)[C@H](CCCCN)NC(=O)[C@H](C)NC(=O)[C@@H](NC(=O)[C@H](CCN)NC(=O)c1ccc(-c2ccc(Cl)cc2)cc1)[C@@H](C)O)B1O[C@@H]2C[C@@H]3C[C@@H](C3(C)C)[C@]2(C)O1 [Compound 112] ({Benzoyl(4-(4-Cl-Ph))}-[Dab]TAK-{boroAla((+)-pinanediol)}) | 1 (≈ 1.19 µM) | 64 (≈ 76.3 µM) | 
C[C@H](NC(=O)[C@H](CCCCN)NC(=O)[C@H](C)NC(=O)[C@@H](NC(=O)[C@H](CCN)NC(=O)c1ccc(-c2ccc(Cl)cc2)cc1)[C@@H](C)O)B1OCCNCCO1 [Compound 131] ({Benzoyl(4-(4-Cl-Ph))}-[Dab]TAK-X37) |  |  | 1 (≈ 1.29 µM)
CCCCc1ccc(-c2ccc(CN(CCCN)C(=O)N[C@H](C(=O)N[C@@H](C)C(=O)N[C@@H](CCCCN)C(=O)N[C@@H](C)B3OC4C[C@@H]5C[C@@H](C5(C)C)[C@]4(C)O3)[C@@H](C)O)cc2)cc1 (stereo partly shown) [Compound 132] |  | 32 (≈ 37.8 µM) | 5.7 (≈ 6.74 µM)
C[C@H](NC(=O)[C@H](CCCCN)NC(=O)[C@H](C)NC(=O)[C@@H](NC(=O)[C@H](CCCCN)NS(=O)(=O)c1ccc(-c2ccccc2)cc1)[C@@H](C)O)B1O[C@@H]2C[C@@H]3C[C@@H](C3(C)C)[C@]2(C)O1 [Compound 133] ({Benzenesulfonyl(4-Ph)}-KTAK-{boroAla((+)-pinanediol)}) |  | >64 | 8 (≈ 9.22 µM)
CC(NC(=O)[C@H](CCCCN)NC(=O)[C@H](C)NC(=O)[C@@H](NC(=O)[C@H](CCN)NC(=O)c1ccc(-c2ccc(Cl)cc2)cc1)[C@@H](C)O)C(=O)C(F)(F)C(=O)O (stereo partly shown) [Compound 215] ({Benzoyl(4-(4-Cl-Ph))}-[Dab]TAK-X20) | 6.7 (≈ 8.57 µM) | 64 (≈ 81.8 µM) | 
C[C@H](NC(=O)[C@@H](NC(=O)[C@H](CCN)NC(=O)c1ccc(-c2ccc(Cl)cc2)cc1)[C@@H](C)O)C(=O)N[C@@H](CCCCN)C(=O)N[C@@H](C)C(=O)C1CO1 (stereo partly shown) [Compound 216] ({Benzoyl(4-(4-Cl-Ph))}-[Dab]TAK-X7) | 1 (≈ 1.37 µM) | 16 (≈ 21.9 µM) | 
CCCCCCCCCCNCCC(=O)N[C@@H](CCCCN)C(=O)N[C@H](C(=O)N[C@@H](C)C(=O)N[C@@H](CCCCN)C(=O)N[C@@H](C)B(O)O)[C@@H](C)O [Compound 218] ({Propanoyl(3-decylamino)}-KTAK-boroAla) | 2.1 (≈ 2.88 µM) | >64 | 
CCCCCCCCCCNCCC(=O)N[C@@H](CCN)C(=O)N[C@H](C(=O)N[C@@H](C)C(=O)N[C@@H](CCCCN)C(=O)N[C@@H](C)B(O)O)[C@@H](C)O [Compound 219] ({Propanoyl(3-decylamino)}-[Dab]TAK-boroAla) | 1 (≈ 1.43 µM) | 16 (≈ 22.8 µM) | 
CCCCCCCCCCNCCC(=O)N[C@@H](CN)C(=O)N[C@H](C(=O)N[C@@H](C)C(=O)N[C@@H](CCCCN)C(=O)N[C@@H](C)B(O)O)[C@@H](C)O [Compound 220] ({Propanoyl(3-decylamino)}-[Dap]TAK-boroAla) | 1 (≈ 1.46 µM) | 16 (≈ 23.3 µM) | 
CCCCCCCCCCNCCC(=O)N[C@@H](CCCCN)C(=O)N[C@H](C(=O)N[C@@H](C)C(=O)N[C@@H](CC(N)=O)C(=O)N[C@@H](C)B(O)O)[C@@H](C)O [Compound 221] ({Propanoyl(3-decylamino)}-KTAN-boroAla) | 4 (≈ 5.6 µM) | 64 (≈ 89.5 µM) | 
CCCCCCCCCCNCCC(=O)N[C@@H](CN)C(=O)N[C@H](C(=O)N[C@@H](C)C(=O)N[C@@H](CC(N)=O)C(=O)N[C@@H](C)B(O)O)[C@@H](C)O [Compound 222] ({Propanoyl(3-decylamino)}-[Dap]TAN-boroAla) | 2 (≈ 2.97 µM) | 8 (≈ 11.9 µM) | 
CCCCCCCCCCNCCC(=O)N[C@@H](CCCCN)C(=O)N[C@@H](CCC(=O)O)C(=O)N[C@@H](C)C(=O)N[C@@H](CCCCN)C(=O)N[C@@H](C)B1O[C@@H]2C[C@@H]3C[C@@H](C3(C)C)[C@]2(C)O1 [Compound 223] ({Propanoyl(3-decylamino)}-KEAK-{boroAla((+)-pinanediol)}) |  | 64 (≈ 71.8 µM) | 4 (≈ 4.49 µM)
CCCCCCCCCCNCCC(=O)N[C@@H](CCCCN)C(=O)N[C@@H](CC(=O)O)C(=O)N[C@@H](C)C(=O)N[C@@H](CCCCN)C(=O)N[C@@H](C)B1O[C@@H]2C[C@@H]3C[C@@H](C3(C)C)[C@]2(C)O1 [Compound 224] ({Propanoyl(3-decylamino)}-KDAK-{boroAla((+)-pinanediol)}) |  | >64 | 11 (≈ 12.5 µM)
CCCCCCCCCCNCCC(=O)N[C@@H](CCCCN)C(=O)N[C@H](C(=O)N[C@@H](C)C(=O)N[C@@H](Cc1cnc[nH]1)C(=O)N[C@@H](C)B1O[C@@H]2C[C@@H]3C[C@@H](C3(C)C)[C@]2(C)O1)[C@@H](C)O [Compound 225] ({Propanoyl(3-decylamino)}-KTAH-{boroAla((+)-pinanediol)}) |  | 16 (≈ 18.3 µM) | 2 (≈ 2.29 µM)
CCCCCCCCNCCC(=O)N[C@@H](CCCCN)C(=O)N[C@H](C(=O)N[C@@H](C)C(=O)N[C@@H](CCCCN)C(=O)N[C@@H](C)B1O[C@@H]2C[C@@H]3C[C@@H](C3(C)C)[C@]2(C)O1)[C@@H](C)O [Compound 226] (X24-KTAK-{boroAla((+)-pinanediol)}) |  | >64 | 6.3 (≈ 7.55 µM)
CCCCCCCCCNCCCC(=O)N[C@@H](CCCCN)C(=O)N[C@H](C(=O)N[C@@H](C)C(=O)N[C@@H](CCCCN)C(=O)N[C@@H](C)B1O[C@@H]2C[C@@H]3C[C@@H](C3(C)C)[C@]2(C)O1)[C@@H](C)O [Compound 227] (X17-KTAK-{boroAla((+)-pinanediol)}) | 2 (≈ 2.32 µM) | 64 (≈ 74.2 µM) | 
CCCCCCCCCNCCCC(=O)N[C@@H](CCCCN)C(=O)N[C@H](C(=O)N[C@@H](C)C(=O)N[C@@H](CCCCN)C(=O)N[C@@H](C)B(O)O)[C@@H](C)O [Compound 228] (X17-KTAK-boroAla) | 2 (≈ 2.74 µM) | >64 | 
CCCCCCCCCCNCC(=O)N[C@H](C(=O)N[C@@H](C)C(=O)N[C@@H](CCCCN)C(=O)N[C@@H](C)B1O[C@@H]2C[C@@H]3C[C@@H](C3(C)C)[C@]2(C)O1)[C@@H](C)O [Compound 229] (H-[NDecylGly]TAK-{boroAla((+)-pinanediol)}) |  | 64 (≈ 88.8 µM) | 1.3 (≈ 1.8 µM)
CCCCCCCCCCNCC(=O)N[C@@H](CCCCN)C(=O)N[C@H](C(=O)N[C@@H](C)C(=O)N[C@@H](CCCCN)C(=O)N[C@@H](C)B1O[C@@H]2C[C@@H]3C[C@@H](C3(C)C)[C@]2(C)O1)[C@@H](C)O [Compound 230] (H-[NDecylGly]KTAK-{boroAla((+)-pinanediol)}) |  | 32 (≈ 37.7 µM) | 0.36 (≈ 0.424 µM)
C[C@H](NC(=O)[C@H](CCCCN)NC(=O)[C@H](C)NC(=O)[C@@H](NC(=O)[C@H](CCCCN)NS(=O)(=O)c1ccc(-c2ccccc2)cn1)[C@@H](C)O)B1O[C@@H]2C[C@@H]3C[C@@H](C3(C)C)[C@]2(C)O1 [Compound 231] (X31-KTAK-{boroAla((+)-pinanediol)}) |  | >64 | 32 (≈ 36.8 µM)
CCCCc1ccc(-c2ccc(S(=O)(=O)N[C@@H](CCN)C(=O)N[C@H](C(=O)N[C@@H](C)C(=O)N[C@@H](CCCCN)C(=O)N[C@@H](C)B3O[C@@H]4C[C@@H]5C[C@@H](C5(C)C)[C@]4(C)O3)[C@@H](C)O)cn2)cc1 [Compound 232] (X18-[Dab]TAK-{boroAla((+)-pinanediol)}) |  | 11 (≈ 12.3 µM) | 1.5 (≈ 1.67 µM)
CCCCc1ccc(-c2ccc(S(=O)(=O)N[C@@H](CCN)C(=O)N[C@H](C(=O)N[C@@H](C)C(=O)N[C@@H](CCCCN)C(=O)N[C@@H](C)B(O)O)[C@@H](C)O)cn2)cc1 [Compound 233] (X18-[Dab]TAK-boroAla) |  | 8 (≈ 10.5 µM) | 2 (≈ 2.62 µM)
C[C@H](NC(=O)[C@H](CCCCN)NC(=O)[C@H](C)NC(=O)[C@@H](NC(=O)[C@H](CCN)NS(=O)(=O)c1ccc(-c2ccc(Cl)cc2)nc1)[C@@H](C)O)B1O[C@@H]2C[C@@H]3C[C@@H](C3(C)C)[C@]2(C)O1 [Compound 234] (X21-[Dab]TAK-{boroAla((+)-pinanediol)}) |  | 32 (≈ 36.6 µM) | 16 (≈ 18.3 µM)
CCCCCCCCCCNCCC(=O)N[C@@H](CCCCN)C(=O)N[C@H](C(=O)N[C@@H](C)C(=O)N[C@@H](CCN)C(=O)N[C@@H](C)C(=O)C(=O)OC)[C@@H](C)O [Compound 254] ({Propanoyl(3-decylamino)}-KTA[Dab]-AlaCOCOOMe) | 16 (≈ 21.5 µM) |  | 
